In this assay the test system is Human colon cancer cells WiDr. In words: Tumor growth inhibitory effect, WiDr subcutaneous xenograft in nude rats. It counts as in vivo, F344/N Jcl-rnu nude rats. The method, then:
Pharmacological Test 4 (Tumor Growth Inhibitory Effect)
Human colon cancer cells WiDr (obtained from ATCC) were implanted into the subcutaneous area of the back of F344/N Jcl-rnu nude rats. 12 days after the implantation, 5 mg/kg of gemcitabine (Gemzar, from Eli Lily) was intravenously administered to them; and after 24 hours, a test compound suspended in a solvent (0.5% methyl cellulose) was orally administered thereto. This was repeated once a week for 3 weeks. The tumor volume (0.5×major diameter×(minor diameter)^2) was measured on days 0, 3, 6, 10, 13, 17, 20, 24 and 27 (the first gemcitabine administration is on day 0). The relative tumor volume was calculated, based on the tumor volume on day 0, as 1. The tumor growth rate (% T/C) was obtained according to the formulae mentioned below.
In case where the tumor volume change from day 0 in the test compound administration group is more than 0 (>0): % T/C=(tumor volume change in the test compound group on days 3, 6, 10, 13, 17, 20, 24 and 27/tumor volume change in the control group on days 3, 6, 10, 13, 17, 20, 24 and 27)×100. In case where the tumor volume change from day 0 in the test compound administration group is less than 0 (<0): % T/C=(tumor volume change in the test compound group on days 3, 6, 10, 13, 17, 20, 24 and 27/tumor volume […] in the test compound group on day 0)×100.
Gemcitabine was administered on days 0, 7 and 14. The compound of Example 1 was administered on days 1, 8 and 15.

As for `Nc1ccn([C@@H]2O[C@H](CO)[C@@H](O)C2(F)F)c(=O)n1` [Gemcitabine, gemcitabine], where the note is “day 3, gemcitabine 5 mg/kg i.v. days 0, 7, 14, Example 1 15 mg/kg oral days 1, 8, 15, n=5”, the “% T/C day 3” value turned out to be 62%. The “% T/C day 6” value (day 6, gemcitabine 5 mg/kg i.v. days 0, 7, 14, Example 1 15 mg/kg oral days 1, 8, 15, n=5) is reported as 67%. For the same compound, the “% T/C day 10” value (day 10, gemcitabine 5 mg/kg i.v. days 0, 7, 14, Example 1 15 mg/kg oral days 1, 8, 15, n=5) was determined as 66%. For the same compound, the “% T/C day 13” value (day 13, gemcitabine 5 mg/kg i.v. days 0, 7, 14, Example 1 15 mg/kg oral days 1, 8, 15, n=5) worked out at 64%. Moreover, for the setting “day 17, gemcitabine 5 mg/kg i.v. days 0, 7, 14, Example 1 15 mg/kg oral days 1, 8, 15, n=5”, the “% T/C day 17” value is 57%. Also, the “% T/C day 20” value (day 20, gemcitabine 5 mg/kg i.v. days 0, 7, 14, Example 1 15 mg/kg oral days 1, 8, 15, n=5) came out at 49%. In addition, the “% T/C day 24” value (day 24, gemcitabine 5 mg/kg i.v. days 0, 7, 14, Example 1 15 mg/kg oral days 1, 8, 15, n=5) worked out at 52%. Also, the “% T/C day 27” value (day 27, gemcitabine 5 mg/kg i.v. days 0, 7, 14, Example 1 15 mg/kg oral days 1, 8, 15, n=5) is reported as 54%. For the same compound, for the setting “summary of Table 5”, the “tumor growth rate, result in words” value is on record as “reduced the tumor growth rate”.

The values are drawn from patent publication US8436004B2, “Bicycloaniline derivative” (MSD K.K., priority 2007, dated 2013).
